Assay results as given in patent publication US12104143B2, “Compositions comprising cellulase with a nonionic surfactant and a quaternary ammonium compound” (ECOLAB USA INC., priority 2018, dated 2024).

How the values were obtained:
[1] = test system: dark eyed fruit flies (DEFF); experiment: Adult fly emergence test, dark eyed fruit flies (DEFF); type: in vivo; settings: 1.8% sodium citrate, pH about 4.5; 1% active Bardac 205M, 0.5% Cellulase B or 2% Tween 20 (Test Comp. C, B, A)
Protocol: Tests were performed to assess the cleaning compositions' effectiveness against insects. Small flies, which are common near clogged drains for beverage towers were used for these tests. Carolina Biological Formula 2-24 Instant Drosophila Medium was mixed with water in equal parts liquid to media by volume. A small pinch of active yeast was also added. The media was allowed to sit for two days before the start of the test, allowing the yeast time to ferment and ensure there will be enough food available for fly larvae when introduced in the media. Ten larvae of each fly species are placed into the fruit fly vials containing media two days after starting the media. The age of the larvae varies, but the majority of the larvae in each vial were mid instars larvae. Mature larvae were avoided to prevent pupation before the product is added. Each treatment had 5 replicates, for a total of 50 larvae of each species per treatment. Larvae were collected from the media of existing fly rearing containers. Emergence of adult flies was recorded at one week, two weeks, and three weeks to determine how many of the […] larvae had completed development and emerged as adults. The test was maintained at 80° F. and ambient humidity. Tween 20 was tested as an exemplary nonionic surfactant. DRAIN EASE FLOW from Novozymes was tested as an exemplary enzyme composition. […]

[2] = test system: cellulase activity; experiment: Shelf life stability by enzyme activity assay, incubated at 37° C. over 8 weeks (Examples 8-10); type: physicochemical; settings: for remaining cellulase activity: 4 weeks at 37° C.
Protocol: The impact of pH on shelf life stability was examined. […] The compositions were adjusted to a pH of 4.00, 4.25, and 4.50. Enzyme stability was assessed by an activity assay.
The compositions were adjusted to a pH of 4.25. Two control compositions were also prepared, one without a surfactant and one with the anionic surfactant, […] (SLS), as a negative control. Enzyme stability was assessed by an activity assay. […] The control containing no surfactant approached 0% remaining activity after the 8-week period.
Different stabilizers—glycerol and PEG 200—were tested to assess their effect on shelf life stability of formulations including a quaternary amine. […] The compositions were adjusted to a pH of 4.25. Enzyme stability was assessed by an activity enzyme. A control composition was also prepared having no stabilizer.

[3] = test system: DRAIN EASE FLOW activity; experiment: Enzyme stability: retained DRAIN EASE FLOW activity in degrading a sugar snake after incubation at 37° C. (Example 6); type: physicochemical; settings: 20% stabilizer, 1.0% active Bardac 205M, pH about 4.5
Protocol: Enzyme stability was tested in cleaning compositions prepared with differing stabilizers. […] The effect of pH on stability was also assessed by testing compositions at a pH of 4.5 and 5.5. […] Enzyme stability was again assessed by an activity assay. […] This increased stability is even more pronounced when formulated with 1% active Bardac […].

[4] = Cellulase catalyzed hydrolysis of bacterial cellulose (sugar snake degradation) with stabilizers (Example 7); type: biochemical; settings: 10% stabilizer; 0.5 wt. % DRAIN EASE FLOW, 2 wt. % Tween 20, 0.1 wt. % Bardac 205M, pH about 4.0; 20 mL/g, 2 hours
Protocol: The stabilizers tested were PEG 200, Glycerol, Propylene Glycol, and Sucrose. A composition was also prepared without a stabilizer. All the compositions were prepared in water at a pH of about 4.0. A piece of sugar snake weighing about 5 grams was used to screen enzyme performance. The chemistry was dosed at 20 mL/g sugar snake and incubated for 2 hours. The relative enzyme performance was determined at each concentration by comparing the performance to control formulations lacking stabilizer. The results are provided in FIG. 11 where 40 indicates 40% degradation.

CCCCCCCCCCCC(=O)OCCOCCOCCOCCOCCOCCOCCOCCOCCOCCOCCOCCOCCOCCOCCOCCOCCOCCOCCOCCOCC(OCCOCCOCCOCCOCCOCCOCCOCCOCCOCCOCCOCCOCCOCCOCCOCCOCCOCCOCCOCCO)C1OCC(OCCOCCOCCOCCOCCOCCOCCOCCOCCOCCOCCOCCOCCOCCOCCOCCOCCOCCOCCOCCO)C1OCCOCCOCCOCCOCCOCCOCCOCCOCCOCCOCCOCCOCCOCCOCCOCCOCCOCCOCCOCCO (stereo not drawn) [Tween 20, polyethylene glycol sorbitan monolaurate]
adult DEFF emergence relative to the water and buffer only controls [1]: not statistically significant
residual activity after 8 weeks ([2]; 2 wt. % surfactant (or none), 0.2 wt. % Bardac 205M, 10 wt. % PEG 200, 0.5 wt. % DRAIN EASE FLOW, pH 4.25, 37° C.): 55%
shelf stability ranking among surfactants ([2]; 2 wt. % surfactant, 0.2 wt. % Bardac 205M, 10 wt. % PEG 200, pH 4.25, 37° C., 8 weeks): best stability

OCC(O)CO [glycerol]
enzyme stability relative to control formulations lacking stabilizer [3]: enhanced stability
remaining cellulase activity ([2]; 10% stabilizer, both quaternary amine concentrations (175 ppm and 1000 ppm), pH 4.25): > 95%
shelf life stability ranking among stabilizers ([2]; 10 wt. % stabilizer or none, 175 ppm or 1000 ppm Bardac 205M, pH 4.25, 37° C.): best stability

OC[C@H]1O[C@@](CO)(O[C@H]2O[C@H](CO)[C@@H](O)[C@H](O)[C@H]2O)[C@@H](O)[C@@H]1O [sucrose]
sugar snake degradation performance versus control formulations lacking stabilizer [4]: did not statistically impact performance

polyethylene glycol 200 [PEG 200]
enzyme stability relative to control formulations lacking stabilizer [3]: enhanced stability
remaining cellulase activity ([2]; 10% stabilizer, 175 ppm quaternary amine, pH 4.25): > 40%
shelf life stability ([2]; 10% stabilizer, 1000 ppm quaternary, pH 4.25, 37° C.): enhanced stability

polyethylene glycol 400 [PEG 400]
enzyme stability relative to control formulations lacking stabilizer [3]: did not enhance stability

CC(O)CO (stereo not drawn) [propylene glycol]
enzyme stability relative to control formulations lacking stabilizer [3]: did not enhance stability
